Data set [1] in a line: Apparent solubility study in bio-relevant media. The class given is physicochemical. The settings on record: for Solubility: 25° C.; for Solubility / solubility at 24 h: 24 hours; for Apparent solubility compared with Form Amorphous: comparison in words; for solubility at 24 h: 25 °C, thermodynamic from solid. The protocol:
Apparent solubility was determined by suspending 5 mg of compound (I) in different bio-relevant media including pH buffers, SGF, FaSSIF, and FeSSIF. The suspensions were equilibrated at 25° C. for 24 hours. The suspensions were then filtered through a 0.22 μm PVDF filter into a 2-mL HPLC vial. The quantitation of the filtrate was conducted by HPLC with reference to a standard solution.

The nature of data set [2]: Single dose PK (SDPK) study, oral suspension. Format: in vivo, Wistar Han rat. The settings on record: for Cmax / Tmax: male, plasma, Wistar Han rat, n = 5; for Cmax: read-out: Cmax of Compound (I) (double prodrug) in plasma; for Tmax: read-out: Tmax of Compound (I) (double prodrug) in plasma. The procedure:
Five male Wistar Han rats were administered a single oral dose of 100 or 200 mg/kg of compound (I) (either Form A or Form C). Drug was administered as a suspension in 2% klucel, 0.1% polysorbate 80 and 0.1% parabens in water. Samples were taken at various times up to 24 h and plasma was analysed for compound (I) (double prodrug), compound (Ia) (single prodrug) and compound (Ib) (single prodrug) and compound (III) (active Form).

Data set [3] in a line: Physical stability of solid forms in stability chamber, solid form checked by XRPD. The class given is physicochemical. The settings on record: for Physical stability (solid form by XRPD compared with initial solid form): 40° C./75%-RH, 1 month; for Stability compared with Form Amorphous: comparison in words, accelerated storage 40° C./75%-RH. The procedure:
40 mg compound (I) in different solid forms were stored in a stability chamber with temperature and humidity controlled at 40° C. and 75%-RH, respectively. After 1 month, the samples were analyzed by XRPD to check their solid form and compared with their initial solid form.

Data set [4] can be described thus: Solid form conversion in aqueous compositions. Format: physicochemical. The procedure:
Form A as prepared in Example 10 was suspended in water to form a slurry at room temperature for 2 hours to afford Form B, then the solid was collected by filtration and dried under vacuum. Depending on the solvation status Form B can be a solvate, a hydrate or a polymorph of compound (I).

Read-outs that look alike come from different tables or passages of the source.

One may read the Solubility as the dissolved amount per volume that the medium holds. A word on the Cmax: it is the highest concentration seen after dosing. The term Tmax denotes the time from dosing to the highest level. Broadly, the solubility is how much of the substance goes into solution per volume.

As for `CC[C@H](OC(C)=O)[C@@H]1C[C@@H](O)[C@H](n2c(=O)sc3cnc(N)nc32)O1` [Form C of compound (I), [(1S)-1-[(2S,4R,5R)-5-(5-amino-2-oxo-thiazolo[4,5-d]pyrimidin-3-yl)-4-hydroxy-tetrahydrofuran-2-yl]propyl] acetate], the Solubility in data set [1] (FaSSIF, listed as Example 2, Form C of compound (I)) is listed as 2.19 mg/mL; in data set [1] (FeSSIF, listed as Example 2, Form C of compound (I)), 2.78 mg/mL; in data set [1] (SGF, listed as Example 2, Form C of compound (I)), greater than 10 mg/mL; in data set [1] (pH1 buffer, listed as Example 2, Form C of compound (I)) it was greater than 10 mg/mL; in data set [1] (pH3 buffer, listed as Example 2, Form C of compound (I)) it was 4.98 mg/mL; in data set [1] (pH5 buffer, listed as Example 2, Form C of compound (I)) it was 2.24 mg/mL. In addition, the Solubility in data set [1] (pH7 buffer, listed as Example 2, Form C of compound (I)) is 2.19 mg/mL; in data set [1] (pH9 buffer, listed as Example 2, Form C of compound (I)) it was 2.32 mg/mL. Further, in data set [1], the “Apparent solubility compared with Form Amorphous” value is listed as “comparable apparent solubility”. Further, the Cmax in data set [2] (PO 200 mg/kg) turned out to be 259 ng/mL. Also, the Tmax in data set [2] (PO 200 mg/kg) came out at 19.8 min. Besides, the “Physical stability (solid form by XRPD compared with initial solid form)” value in data set [3] (listed as Example 2, Form C of compound (I)) is recorded as “no solid form change”. Moreover, the “Stability compared with Form Amorphous” value in data set [3] was “significantly improved stability”; in data set [3] (listed as Form C), “better stability”.
On to `CC[C@H](OC(C)=O)[C@@H]1C[C@@H](O)[C@H](n2c(=O)sc3cnc(N)nc32)O1` [Form Amorphous of compound (I), [(1S)-1-[(2S,4R,5R)-5-(5-amino-2-oxo-thiazolo[4,5-d]pyrimidin-3-yl)-4-hydroxy-tetrahydrofuran-2-yl]propyl] acetate], for which the Solubility in data set [1] (FaSSIF, listed as Example 1, Form Amorphous of compound (I)) is listed as 6.93 mg/mL; in data set [1] (FeSSIF, listed as Example 1, Form Amorphous of compound (I)) it was 7.35 mg/mL; in data set [1] (pH3 buffer, listed as Example 1, Form Amorphous of compound (I)), 9.57 mg/mL; in data set [1] (pH5 buffer, listed as Example 1, Form Amorphous of compound (I)) it was 3.83 mg/mL; in data set [1] (pH7 buffer, listed as Example 1, Form Amorphous of compound (I)) it was 4.05 mg/mL; in data set [1] (pH9 buffer, listed as Example 1, Form Amorphous of compound (I)), 5.03 mg/mL. Further, the solubility at 24 h in data set [1] (SGF, simulated gastric fluid) is greater than 10000 µg/mL; in data set [1] (pH 1 buffer, pH 1, simulated gastric fluid, pH1 buffer), greater than 10000 µg/mL. In addition, in data set [3] (listed as Example 1, Form Amorphous of compound (I)), the “Physical stability (solid form by XRPD compared with initial solid form)” value is listed as “solid form change”. Further, the “Tendency to form change” value in data set [3] (general finding in words) is listed as “prone to crystallization”.
As for `CC[C@H](OC(C)=O)[C@@H]1C[C@@H](O)[C@H](n2c(=O)sc3cnc(N)nc32)O1` [Form B of compound (I), [(1S)-1-[(2S,4R,5R)-5-(5-amino-2-oxo-thiazolo[4,5-d]pyrimidin-3-yl)-4-hydroxy-tetrahydrofuran-2-yl]propyl] acetate], the Solubility in data set [1] (FaSSIF, listed as Example 11, Form B of compound (I)) is 3.82 mg/mL; in data set [1] (FeSSIF, listed as Example 11, Form B of compound (I)), 4.13 mg/mL; in data set [1] (SGF, listed as Example 11, Form B of compound (I)) it was greater than 10 mg/mL; in data set [1] (pH1 buffer, listed as Example 11, Form B of compound (I)) it was greater than 10 mg/mL; in data set [1] (pH3 buffer, listed as Example 11, Form B of compound (I)), 6.92 mg/mL; in data set [1] (pH5 buffer, listed as Example 11, Form B of compound (I)) it was 3.35 mg/mL. For the same compound, the Solubility in data set [1] (pH7 buffer, listed as Example 11, Form B of compound (I)) is 3.40 mg/mL; in data set [1] (pH9 buffer, listed as Example 11, Form B of compound (I)) it was 3.55 mg/mL. Also, the “Physical stability (solid form by XRPD compared with initial solid form)” value in data set [3] (listed as Example 11, Form B of compound (I)) was “no solid form change”. Besides, the “Stability compared with Form Amorphous” value in data set [3] was “better stability”. In data set [4], the “Solid form conversion / stability in aqueous environment” value is listed as “better stability in aqueous environment”.
Consider `CC[C@H](OC(C)=O)[C@@H]1C[C@@H](O)[C@H](n2c(=O)sc3cnc(N)nc32)O1` [Form G of compound (I), [(1S)-1-[(2S,4R,5R)-5-(5-amino-2-oxo-thiazolo[4,5-d]pyrimidin-3-yl)-4-hydroxy-tetrahydrofuran-2-yl]propyl] acetate], for which the Solubility was 2.49 mg/mL in data set [1] (FaSSIF, listed as Example 12, Form G of compound (I)); 2.79 mg/mL in data set [1] (FeSSIF, listed as Example 12, Form G of compound (I)); greater than 10 mg/mL in data set [1] (SGF, listed as Example 12, Form G of compound (I)); greater than 10 mg/mL in data set [1] (pH1 buffer, listed as Example 12, Form G of compound (I)); 6.44 mg/mL in data set [1] (pH3 buffer, listed as Example 12, Form G of compound (I)); 3.75 mg/mL in data set [1] (pH5 buffer, listed as Example 12, Form G of compound (I)). For the same compound, the Solubility is on record as 3.70 mg/mL in data set [1] (pH7 buffer, listed as Example 12, Form G of compound (I)) and 3.64 mg/mL in data set [1] (pH9 buffer, listed as Example 12, Form G of compound (I)). Moreover, the “Apparent solubility compared with Form Amorphous” value in data set [1] is reported as “comparable apparent solubility”. For the same compound, in data set [3] (listed as Example 12, Form G of compound (I)), the “Physical stability (solid form by XRPD compared with initial solid form)” value is “no solid form change”. Besides, the “Stability compared with Form Amorphous” value is “improved stability” in data set [3] and “better stability” in data set [3] (listed as Form G).
On to `CC[C@H](OC(C)=O)[C@@H]1C[C@@H](O)[C@H](n2c(=O)sc3cnc(N)nc32)O1` [Form A of compound (I), [(1S)-1-[(2S,4R,5R)-5-(5-amino-2-oxo-thiazolo[4,5-d]pyrimidin-3-yl)-4-hydroxy-tetrahydrofuran-2-yl]propyl] acetate], for which the Solubility in data set [1] (FaSSIF, listed as Example 10, Form A of compound (I)) is given as 6.33 mg/mL; in data set [1] (FeSSIF, listed as Example 10, Form A of compound (I)) it was 7.93 mg/mL; in data set [1] (SGF, listed as Example 10, Form A of compound (I)), greater than 16.36 mg/mL; in data set [1] (pH1 buffer, listed as Example 10, Form A of compound (I)), greater than 16.28 mg/mL; in data set [1] (pH3 buffer, listed as Example 10, Form A of compound (I)) it was 12.87 mg/mL; in data set [1] (pH5 buffer, listed as Example 10, Form A of compound (I)) it was 6.39 mg/mL. Further, the Solubility in data set [1] (pH7 buffer, listed as Example 10, Form A of compound (I)) is reported as 6.24 mg/mL; in data set [1] (pH9 buffer, listed as Example 10, Form A of compound (I)), 6.38 mg/mL. Besides, the “Conversion rate to the single prodrug in vivo” value in data set [2] (Form A at 100 mg/kg compared with Form C at 200 mg/kg, in words) is recorded as “faster conversion rate”. For the same compound, in data set [2] (PO 100 mg/kg), the Cmax came to 563 ng/mL. The Tmax in data set [2] (PO 100 mg/kg) was determined as 90 min. Further, the “Physical stability (solid form by XRPD compared with initial solid form)” value in data set [3] (listed as Example 10, Form A of compound (I)) is given as “no solid form change”. Further, the “Stability compared with Form Amorphous” value in data set [3] was “better stability”.
